Holding throughout (test): inhibition of tumour cell growth, NCI panel, 48 h
The subject of assay [1] is MDA-N.
The subject of assay [2] is T-47D breast.
Assay [3] relates to KM20L2 colon.
Assay [4] concerns DMS 273 small cell lung.
For assay [5], the system named is LXFL 529 NSCLC.
Assay [6] deals with SNB-78 CNS.
For assay [7], the system named is RXF-631 renal.

Each structure is given as a SMILES string. Several values for one entry are separate records, joined by “and”; a condition that tells them apart may be missing. Identical values can stand only once.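 In this assay, cells in 96-well plates receive the compound at five concentrations for 48 hours. Endpoints are linearly interpolated between the surrounding concentrations. At the GI50, growth is halved. TGI denotes the concentration required for complete inhibition of growth.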

With `COc1cc(/C=C2\Sc3scc(-c4cccc([N+](=O)[O-])c4)[n+]3C2=O)cc(OC)c1OC`, the results for the TGI in assay [1] and in assay [2] were 27.1 µM and 25 µM, respectively.

As to `C/C=C(\C)C(=O)O[C@H]1C=CC(=O)O[C@@H]1CC[C@H](O)[C@H](C)O`, in assay [2], the GI50 was 38.6 µM and the TGI was above 87.1 µM.

As for `COc1ccc(OC)c2c1C(=O)C1CC1(Br)C2=O` (stereo not given), the TGI in assay [3], in assay [4] and in assay [5] was above 100 µM each time.

For `C=C1C(=O)OC2C1C(OC(=O)/C(C)=C/C)CC(O)(CCl)C1C(O)C3OC3(C)C21O` (stereo not given), the TGI in assay [1] and in assay [2] was above 50 µM each time.

In the case of `CN(/N=C/c1cccc2cccnc12)c1ccccc1`, the TGI in assay [3], in assay [4], in assay [6] and in assay [5] was above 100 µM in each case.

Regarding `O=c1nc2oc3ccc4ccccc4c3cc-2s1`, in assay [2], the GI50 is 3.51 µM and the TGI was above 100 µM.

In the case of `Cc1ccc(S(=O)(=O)Nc2cccc3[nH]c(C(F)(F)F)nc23)cc1`, in assay [2], the GI50 was 0.492 µM and the TGI is 57 µM.

With `CC(C)(O)CC(=O)NCCn1ccc2ncnc(Nc3ccc(Oc4cccc(C(F)(F)F)c4)c(Cl)c3)c21`, in assay [2], the GI50 is 0.641 µM and the TGI is above 10 µM.

Turning to `[N-]=[N+]=NC(CI)c1cn([C@H]2C[C@H](O)[C@@H](CO)O2)c(=O)[nH]c1=O` (stereo not given in full), the TGI in assay [3], in assay [4], in assay [6] and in assay [5] was above 100 µM each time.

The compound `CN(C)c1ccc2c(c1)OC(N)=C(C#N)C2c1ccc2c(c1)CCO2` (stereo not given) gave a TGI in assay [2] of 56.4 µM.

Regarding `COc1cc([C@H]2OC[C@H]3[C@@H]2CO[C@@H]3c2cc(OC)c3c(c2)OCO3)cc(OC)c1OC`, the TGI in assay [1] and in assay [2] was above 100 µM each time.

Turning to `Nc1[nH]nc2nc(-c3cccs3)cc(C(F)(F)F)c12`, in assay [2], the GI50 is above 25 µM and the TGI was above 25 µM.

Consider `CCOC(=O)C(=Cc1cccnc1C)C(=O)OCC`, for which the TGI in assay [7] is 39.7 µM; in assay [3], 10.7 µM; in assay [4], 14 µM; in assay [5], 20.2 µM.

On to `COc1ccc(C2SC(C)C(=O)N2NC(=O)C(O)c2ccccc2)cc1OC` (stereo not given), for which, in assay [2], the GI50 is above 100 µM and the TGI is above 100 µM.

On to `Cc1ccccc1NC(=O)C(=O)CC(=O)c1c(C)n([O-])c2ccccc2[n+]1=O`, for which the TGI in assay [3], in assay [4], in assay [6] and in assay [5] was above 100 µM in each case.

Consider `COc1c2c(nc3ccccc13)-c1cc3c(c(=O)n1C2)COC(=O)C3(O)CC(=O)N1CCOCC1` (stereo not given), for which the TGI in assay [1] is above 100 µM; in assay [3], above 100 µM; in assay [2], 72.3 µM; in assay [4], 12.4 µM; in assay [6], above 97.1 µM; in assay [5], above 100 µM.

With `C[CH2][Sn]([CH2]C)([O]C(=O)C(OC(C)=O)c1ccccc1)[O]C(=O)C(OC(C)=O)c1ccccc1` (stereo not given), the results for the GI50 in assay [1] and in assay [2] were 50 µM and 12.9 µM, respectively. The TGI is above 100 µM in assay [1] and 28 µM in assay [2].

For `CCOC(=O)NC(=O)c1cn(CCN2CCN(c3ncnc4nc[nH]c34)CC2)c(=O)[nH]c1=O`, the TGI in assay [7], in assay [3] and in assay [5] was above 100 µM in each case.

Regarding `NC(=O)c1c(NC(=O)c2ccc3c(c2)OCO3)sc2c1CCC(=O)C2`, in assay [2], the GI50 is 0.592 µM and the TGI is 3.81 µM.

`CCCCN(CCCC)c1ccc(C(=N)c2ccc(N(CCCC)CCCC)cc2)cc1`: in assay [2], the GI50 was 0.353 µM and the TGI was determined as 1.39 µM.

Take `CCOc1ccccc1N=Nc1c(C)[nH]n(-c2nc(-c3ccccc3)cs2)c1=O`: in assay [2], the GI50 was 30.1 µM and the TGI is above 100 µM.

Take `CS[C@]12C(=O)C[C@@]3(C)[C@@H](CC[C@]3(O)C(=O)CO)[C@@H]1CCC1=CC(=O)CC[C@@]12C`: the TGI in assay [1] is 69.4 µM; in assay [2] it was above 100 µM.

As for `COc1ccc(C(=O)c2cc3c(N)c(C(=O)Nc4cccc5ccccc45)sc3nc2C)cc1`, in assay [2], the GI50 is 0.355 µM and the TGI was above 50 µM.

As for `Cc1ccc(CNc2c3ccccc3nc3cc(NC(=O)CCN4CCCC4)ccc23)cc1`, in assay [2], the GI50 was 0.751 µM and the TGI was found to be 3.02 µM.

As to `COc1ccc(C2=NN(c3ccccc3)C[N+](c3ccc(OC)cc3)=N2)cc1`, the TGI in assay [3] is above 100 µM; in assay [4], 66.1 µM; in assay [6], 80.5 µM; in assay [5], 45.4 µM.

Regarding `CC1(C)[C@@H](OC(N)=O)[C@H]2O[C@H]2[C@]2(CO)[C@H]3CC[C@]4(C)[C@@H](c5ccc(=O)oc5)[C@@H](Cl)C[C@]4(O)C3=CC[C@@H]12`, in assay [2], the GI50 was 0.0076 µM and the TGI stood at 0.0333 µM.

As for `C=C1C(=O)OC2/C=C(/C)C(OC(C)=O)CC(O)/C(C)=C\C(OC(=O)/C(C)=C\C)C12` (stereo not given), the TGI in assay [1] and in assay [2] was above 100 µM each time.

As to `CC1=C2C(=CC(C)(C)C2O)C(=O)C(C)(O)C12CC2` (stereo not given), the TGI in assay [3] stood at 0.0522 µM; in assay [4], 0.025 µM; in assay [6], 0.226 µM; in assay [5], 0.114 µM.

As to `NC(=S)N/N=C/c1ncccc1N`, the TGI in assay [1] is above 10 µM. For the same compound, in assay [2], the GI50 was 1.92 µM; the TGI is 23.2 µM and > 10 µM.

Regarding `COc1ccc(C(C#N)Cc2cc(OC)c(OC)c(OC)c2)cc1` (stereo not given), the TGI in assay [7], in assay [4], in assay [6] and in assay [5] was above 100 µM in each case.

For `CN1c2ccccc2N(C)C23N(C)c4ccccc4N(C)C12N(C)c1ccccc1N3C` (stereo not given), the TGI in assay [7], in assay [3] and in assay [4] was above 100 µM in each case.

(Values after PubChem BioAssay (NCI).)
